Several values for one entry are separate records, joined by “and”; a condition that tells them apart may be missing. Identical values can stand only once. Counter-ions that a name gives are not always drawn. Like-named read-outs stand apart in the source and are kept apart here.
Key:
[1] = Cytotoxicity in Hs27 normal skin fibroblasts (CellTiter-Glo ATP viability); type: cell-based; conditions: human, 48-h incubation, mean (SD) of 2–3 independent experiments in triplicate
Description: (§1) Analysis of selectivity to cancer cells. The cells were seeded to white frame and clear bottom 96-well plates (Perkin Elmer) at a density of 10,000 cells/well for the human malignant melanoma A-375 cell line (ATCC CRL-1619) and 7500 cells/well for the human skin fibroblast Hs27 cell line (ATCC CRL-1634). The cells were grown at 37 °C, 5% CO2 until they reached 70–80% confluence (approximately 24 h). Stock solutions of test compounds and a positive control (camptothecin, Sigma-Aldrich, St. Louis, MO, USA) were prepared in DMSO and diluted into the assay medium (growth medium with 5% FBS) to the final concentration. Final DMSO concentration was 0.5% in all samples. The culture medium was removed from the plate and compounds added, 200 µL/well. After a 48-h incubation, the amount of ATP, which is directly proportional to the number of viable cells present in culture, was quantified using CellTiter-Glo® Luminescent Cell Viability kit (Promega, Madison, WI, USA), according to manufacturer’s instructions. Origin Graphing and Analysis, version 9.55 (OriginLab, Northampton, MA, USA), was used for determination of CC50 values. The cancer cell selectivity index was calculated as a ratio of CC50 values between Hs27 fibroblasts and A-375 melanoma cells. Standard deviation of selectivity indices was calculated using Equation (1) (1) σ(x¯/y¯)=(σ(x)/x¯)^2+(σ(y)/y¯)^2

[2] = test system: human malignant melanoma A-375 cell line; experiment: Cytotoxicity in A-375 melanoma cells (CellTiter-Glo ATP viability); type: cell-based; conditions: for cytotoxicity at 50 µM / CC50: Homo sapiens; for CC50: read-out: CC50 (µM) in A-375 Cells; for Selectivity Index (SI): ratio of CC50 values between Hs27 fibroblasts and A-375 melanoma cells, SD in parentheses
Description: as §1

[3] = test system: caspases 3/7 in A-375 cells; experiment: Apoptosis induction assay, caspase-3/7 activity (ApoTox-Glo) in A-375 cells; type: cell-based, human; conditions: 1 × CC50 concentration
Description: Apoptosis induction assay and imaging. A-375 cells were seeded to white 96-well plates and treated with compounds at 1 × CC50 concentration, 100 µL/well, following the procedure described above. After 24 and 48 h, caspase-3/7 activity was measured using the ApoTox-Glo kit (Promega) following the manufacturer’s instructions. The light microscopy images were taken using 4× phase contrast objective and Cytation5 automated imaging reader (Biotek).

[4] = test system: breast cancer cell line MCF-7; parameters: method as in PMID 32228987; conditions: MCF-7 breast cancer cells; cited from earlier work
[5] = test system: Malme-3M melanoma cell line; parameters: method as in PMID 32228987; conditions: Malme-3M melanoma cells; cited from earlier work
[6] = test system: SKMel-147 melanoma cell line; parameters: method as in PMID 32228987; conditions: SKMel-147 melanoma cells; cited from earlier work
[7] = test system: Mel-Juso melanoma cell line; parameters: method as in PMID 32228987; conditions: Mel-Juso melanoma cells; cited from earlier work
[8] = test system: MDA-MB-231 (breast) cancer cell line; parameters: method as in doi:10.1016/j.tetlet.2016.10.019; conditions: cited from earlier work
[9] = test system: A549 (lung) cancer cell line; parameters: method as in doi:10.1016/j.tetlet.2016.10.019; conditions: cited from earlier work
[10] = test system: MCF7 (breast) cancer cell line; parameters: method as in doi:10.1016/j.tetlet.2016.10.019; conditions: cited from earlier work
[11] = read-out: CC50 (µM) in Hs27 Cells
[12] = A-375, 48 h, read-out: Primary Test Results (Cytotoxicity % at 50 µM in A-375 Cells), 50 µM, A-375 cells, 48-h incubation, single experiment with three technical replicates

| Compound | Selectivity Index (SI) [2] | CC50 at 48 h [1, 11] | CC50 ([2]; A-375, 48 h) | cytotoxicity at 50 µM [2, 12] | also measured |
| --- | --- | --- | --- | --- | --- |
| CC[C@@]1(O)C(=O)OCc2c1cc1n(c2=O)Cc2cc3ccccc3nc2-1 [Camptothecin, reference compound] | 70.9 (0.5) |  |  |  | CC50 at 48 h ([1]; Hs27 skin fibroblast cells): 3.6 µM; cytotoxicity at 50 µM ([2]; 50 µM, A-375 cells, 48-h incubation, single experiment with three technical replicates, read-out: Primary Test Results (Cytotoxicity % at 50 µM in A-375 Cells)): 94.7%; CC50 ([2]; A-375 cells, 48-h incubation, mean (SD) of 2–3 independent experiments in triplicate): 0.05 µM; Caspase 3/7 induction, fold change relative to DMSO-treated control ([3]; 24 h): ~20 fold; Caspase 3/7 induction, fold change relative to DMSO-treated control ([3]; 48 h): nearly fivefold |
| COC1=C(Br)[C@H](O)[C@@]2(C=C1Br)CC(C(=O)NCC(O)COc1c(Br)cc(C(O)CNC(=O)C3=NO[C@]4(C=C(Br)C(OC)=C(Br)[C@@H]4O)C3)cc1Br)=NO2 (stereo partly shown) [isofistularin-3] |  |  |  |  | Effect on cell viability [4]: reduced cell viability; Effect on cell viability [5]: no significant decrease; Effect on cell viability [6]: no significant decrease; Effect on cell viability [7]: no significant decrease |
| O=C1C=CC2(C=C1)CC(C(=O)Nc1cc(Cl)cc(Cl)c1)=NO2 [Compound 18, N-(3,5-Dichlorophenyl)-8-oxo-1-oxa-2-azaspiro[4.5]deca-2,6,9-triene-3-carboxamide] | 2.0 (0.8) | 0.8 µM | 0.4 µM | 100% |  |
| Cn1nc(-c2ccc(Cl)cc2)cc1NC(=O)C1=NOC2(C=CC(=O)C=C2)C1 [Compound 40, N-[3-(4-Chlorophenyl)-1-methyl-1H-pyrazol-5-yl]-8-oxo-1-oxa-2-azaspiro[4.5]deca-2,6,9-triene-3-carboxamide] | 1.0 (0.8) | 0.5 µM | 0.5 µM | 99.9% |  |
| O=C(NCCc1ccccn1)C1=NOC2(C=C(Br)C(=O)C(Br)=C2)C1 [Compound 33, 7,9-Dibromo-8-oxo-N-[2-(pyridin-2-yl)ethyl]-1-oxa-2-azaspiro[4.5]deca-2,6,9-triene-3-carboxamide] | 1.9 (0.6) | 6.6 µM | 3.6 µM | 98.9% |  |
| N=C(N)NCCCCNC(=O)C1=NOC2(C=C(Br)C(=O)C(Br)=C2)C1 [Compound 1-TFA, 7,9-Dibromo-N-(4-guanidinobutyl)-8-oxo-1-oxa-2-azaspiro[4.5]deca-2,6,9-triene-3-carboxamide] |  |  |  |  | Activity against MDA-MB-231 cancer cell line [8]: moderate activity; Activity against A549 cancer cell line [9]: moderate activity; Activity against MCF7 cancer cell line [10]: moderate activity; Primary Test Results (Cytotoxicity % at 50 µM in A-375 Cells) ([2]; 50 µM, A-375 cells, 48-h incubation, single experiment with three technical replicates): less than 25% and 0.5% |
| O=C1C=CC2(C=C1)CC(C(=O)NCCc1ccccn1)=NO2 [Compound 32, 8-Oxo-N-[2-(pyridin-2-yl)ethyl]-1-oxa-2-azaspiro[4.5]deca-2,6,9-triene-3-carboxamide] | 1.5 (0.9) | 2.2 µM | 1.5 µM | 97.5% |  |
| O=C1C=CC2(C=C1)CC(C(=O)Nc1ccccn1)=NO2 [Compound 28, 8-Oxo-N-(pyridin-2-yl)-1-oxa-2-azaspiro[4.5]deca-2,6,9-triene-3-carboxamide] | 0.8 (0.4) | 1.5 µM | 1.9 µM | 99.6% |  |
| O=C1C=CC2(C=C1)CC(C(=O)N1CCOCC1)=NO2 [Compound 15, 3-(Morpholine-4-carbonyl)-1-oxa-2-azaspiro[4.5]deca-2,6,9-trien-8-one] | 0.7 (0.2) | 2.5 µM | 3.8 µM | 96.1% |  |
| COc1ccc(CNC(=O)C2=NOC3(C=C(Br)C(=O)C(Br)=C3)C2)cc1 [Compound 24, 7,9-Dibromo-N-(4-methoxybenzyl)-8-oxo-1-oxa-2-azaspiro[4.5]deca-2,6,9-triene-3-carboxamide] | 0.9 (0.3) | 3.3 µM | 3.5 µM | 97.8% |  |
| COc1ccc(NC(=O)C2=NOC3(C=C(Br)C(=O)C(Br)=C3)C2)cc1Cl [Compound 21, 7,9-Dibromo-N-(3-chloro-4-methoxyphenyl)-8-oxo-1-oxa-2-azaspiro[4.5]deca-2,6,9-triene-3-carboxamide] | 2.2 (0.3) | 5 µM | 2.3 µM | 101% |  |

Source: paper PMC8305101, “Synthesis and Cytotoxicity Evaluation of Spirocyclic Bromotyrosine Clavatadine C Analogs” (Marine Drugs, 2021)
